Legend:
Assay in all cases: KinaseProfiler kinase selectivity assay
Format in all cases: biochemical
PAK2(h) = PAK2(h) (Homo sapiens, UniProt Q13177)
Experimental: (§1) All compounds were prepared to 50× final assay concentration in 100% DMSO. This working stock of the compound was added to the assay well as the first component in the reaction, followed by the remaining components. In the standard KinaseProfiler™ service, there is no pre-incubation step between the compound and the kinase prior to initiation of the reaction. The positive control wells contain all components of the reaction, except the compound of interest; however, DMSO (at a final concentration of 2%) is included in these wells to control for solvent effects. The blank wells contain all components of the reaction, with a reference inhibitor replacing the compound of interest. This abolishes kinase activity and establishes the base-line (0% kinase activity remaining).

eEF-2K(h) = eEF-2K(h) (Homo sapiens, UniProt O00418)
Experimental: as §1

EGFR(h) = EGFR(h) (Homo sapiens, UniProt P00533)
Experimental: as §1

ALK(h) = ALK(h) (Homo sapiens, UniProt Q9UM73)
Experimental: as §1

PKA(h) = PKA(h) (Homo sapiens, UniProt P17612)
Experimental: as §1

LOK(h) = LOK(h) (Homo sapiens, UniProt O94804)
Experimental: as §1

PKCα(h) = PKCα(h) (Homo sapiens, UniProt P17252)
Experimental: as §1

MSK2(h) = MSK2(h) (Homo sapiens, UniProt O75676)
Experimental: as §1

KDR(h) = KDR(h) (Homo sapiens, UniProt P35968)
Chain of KDR(h) (P35968 20-1356): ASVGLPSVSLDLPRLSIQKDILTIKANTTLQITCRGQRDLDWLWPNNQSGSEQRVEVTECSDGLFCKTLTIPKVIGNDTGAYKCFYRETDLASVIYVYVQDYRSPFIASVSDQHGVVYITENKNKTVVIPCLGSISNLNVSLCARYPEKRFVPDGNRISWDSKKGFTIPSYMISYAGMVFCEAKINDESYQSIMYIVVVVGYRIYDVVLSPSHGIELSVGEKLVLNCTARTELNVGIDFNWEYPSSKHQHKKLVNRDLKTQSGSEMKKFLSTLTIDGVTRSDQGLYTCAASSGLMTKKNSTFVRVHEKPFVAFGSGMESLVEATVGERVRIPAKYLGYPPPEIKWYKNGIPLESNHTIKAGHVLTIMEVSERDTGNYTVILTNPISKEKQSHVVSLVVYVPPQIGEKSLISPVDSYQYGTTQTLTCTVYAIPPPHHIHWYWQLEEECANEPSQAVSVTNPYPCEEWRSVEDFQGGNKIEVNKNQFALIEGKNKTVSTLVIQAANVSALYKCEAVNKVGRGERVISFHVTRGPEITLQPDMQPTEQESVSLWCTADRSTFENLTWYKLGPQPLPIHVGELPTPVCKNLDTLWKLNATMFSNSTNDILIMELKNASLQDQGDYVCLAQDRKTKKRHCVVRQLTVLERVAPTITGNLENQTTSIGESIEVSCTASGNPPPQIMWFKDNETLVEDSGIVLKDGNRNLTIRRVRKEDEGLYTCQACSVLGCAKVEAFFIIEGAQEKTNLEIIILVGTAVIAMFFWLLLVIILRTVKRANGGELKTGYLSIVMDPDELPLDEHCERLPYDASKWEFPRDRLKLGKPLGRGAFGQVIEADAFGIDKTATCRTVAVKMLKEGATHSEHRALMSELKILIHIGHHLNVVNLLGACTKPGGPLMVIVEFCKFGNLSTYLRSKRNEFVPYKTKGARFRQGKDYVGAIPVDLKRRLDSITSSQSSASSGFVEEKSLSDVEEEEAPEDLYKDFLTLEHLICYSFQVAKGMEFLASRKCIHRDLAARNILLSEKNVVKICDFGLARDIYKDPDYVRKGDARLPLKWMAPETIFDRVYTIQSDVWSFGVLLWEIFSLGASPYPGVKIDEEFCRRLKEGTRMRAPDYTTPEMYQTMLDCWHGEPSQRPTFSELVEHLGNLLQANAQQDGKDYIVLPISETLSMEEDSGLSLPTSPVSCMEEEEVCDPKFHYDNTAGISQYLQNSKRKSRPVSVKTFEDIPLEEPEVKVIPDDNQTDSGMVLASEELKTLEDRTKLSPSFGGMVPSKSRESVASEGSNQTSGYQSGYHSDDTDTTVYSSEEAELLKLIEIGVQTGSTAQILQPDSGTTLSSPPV
Experimental: as §1

DRAK1(h) = DRAK1(h) (Homo sapiens, UniProt Q9UEE5)
Experimental: as §1

EphA5(h) = EphA5(h) (Homo sapiens, UniProt P54756)
Experimental: as §1

Plk3(h) = Plk3(h) (Homo sapiens, UniProt Q9H4B4)
Experimental: as §1

[1] = target: PI3 Kinase (p110β/p85α)(h) (Homo sapiens, UniProt P42338)
Experimental: as §1

[2] = target: PI3 Kinase (p110α/p85α)(h) (Homo sapiens, UniProt P42336)
Chain of PI3 Kinase (p110α/p85α)(h) (P42336 whole entry): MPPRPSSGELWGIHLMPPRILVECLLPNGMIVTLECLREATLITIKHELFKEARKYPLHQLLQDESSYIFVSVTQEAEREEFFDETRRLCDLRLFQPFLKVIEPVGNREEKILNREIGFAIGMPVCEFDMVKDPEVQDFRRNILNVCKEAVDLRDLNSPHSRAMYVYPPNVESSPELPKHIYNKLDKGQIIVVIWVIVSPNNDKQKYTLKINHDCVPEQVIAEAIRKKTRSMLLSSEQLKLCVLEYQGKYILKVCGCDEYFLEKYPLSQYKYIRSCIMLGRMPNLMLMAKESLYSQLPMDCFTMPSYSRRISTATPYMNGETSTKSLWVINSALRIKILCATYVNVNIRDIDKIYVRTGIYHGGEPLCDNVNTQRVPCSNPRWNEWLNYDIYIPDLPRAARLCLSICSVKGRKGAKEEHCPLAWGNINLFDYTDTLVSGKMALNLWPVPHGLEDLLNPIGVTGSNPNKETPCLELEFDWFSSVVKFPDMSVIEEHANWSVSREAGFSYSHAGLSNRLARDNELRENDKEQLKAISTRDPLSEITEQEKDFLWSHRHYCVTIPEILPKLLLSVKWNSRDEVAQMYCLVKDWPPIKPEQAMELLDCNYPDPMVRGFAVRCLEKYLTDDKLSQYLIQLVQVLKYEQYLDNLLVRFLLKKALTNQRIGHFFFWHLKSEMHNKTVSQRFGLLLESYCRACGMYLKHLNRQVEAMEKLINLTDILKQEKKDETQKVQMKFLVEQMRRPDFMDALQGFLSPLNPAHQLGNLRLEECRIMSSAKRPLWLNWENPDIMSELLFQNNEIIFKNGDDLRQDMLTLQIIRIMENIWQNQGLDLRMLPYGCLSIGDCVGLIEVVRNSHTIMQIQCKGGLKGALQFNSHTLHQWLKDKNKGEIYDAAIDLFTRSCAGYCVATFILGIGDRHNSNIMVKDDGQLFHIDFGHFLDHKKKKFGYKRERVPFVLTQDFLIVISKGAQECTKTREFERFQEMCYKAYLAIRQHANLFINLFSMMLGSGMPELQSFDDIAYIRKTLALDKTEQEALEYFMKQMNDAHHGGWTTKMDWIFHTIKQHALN
Chain of PI3 Kinase (p110α/p85α)(h) (P27986 whole entry partner): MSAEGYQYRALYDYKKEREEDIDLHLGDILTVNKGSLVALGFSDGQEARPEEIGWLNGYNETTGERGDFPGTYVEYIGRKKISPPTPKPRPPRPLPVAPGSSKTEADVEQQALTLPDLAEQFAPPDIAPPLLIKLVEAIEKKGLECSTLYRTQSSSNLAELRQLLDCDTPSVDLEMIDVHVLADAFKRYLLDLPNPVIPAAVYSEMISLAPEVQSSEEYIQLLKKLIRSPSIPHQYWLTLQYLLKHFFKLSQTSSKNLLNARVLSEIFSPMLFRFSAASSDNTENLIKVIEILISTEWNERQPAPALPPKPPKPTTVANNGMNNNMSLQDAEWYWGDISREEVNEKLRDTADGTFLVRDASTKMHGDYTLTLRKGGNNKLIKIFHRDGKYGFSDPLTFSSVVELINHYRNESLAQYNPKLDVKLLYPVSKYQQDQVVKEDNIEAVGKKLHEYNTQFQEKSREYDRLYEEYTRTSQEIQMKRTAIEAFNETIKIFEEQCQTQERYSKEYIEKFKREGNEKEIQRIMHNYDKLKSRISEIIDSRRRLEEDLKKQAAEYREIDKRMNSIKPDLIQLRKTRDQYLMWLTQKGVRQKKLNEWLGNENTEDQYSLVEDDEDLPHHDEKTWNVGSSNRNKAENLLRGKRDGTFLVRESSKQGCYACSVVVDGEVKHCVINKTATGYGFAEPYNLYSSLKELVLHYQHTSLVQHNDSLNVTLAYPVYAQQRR
Experimental: as §1

SPRK1(h) = SPRK1(h) (Homo sapiens, UniProt Q96SB4)
Experimental: as §1

TAK1(h) = TAK1(h) (Homo sapiens, UniProt O43318)
Chain of TAK1(h) (O43318 1-303 limits assumed): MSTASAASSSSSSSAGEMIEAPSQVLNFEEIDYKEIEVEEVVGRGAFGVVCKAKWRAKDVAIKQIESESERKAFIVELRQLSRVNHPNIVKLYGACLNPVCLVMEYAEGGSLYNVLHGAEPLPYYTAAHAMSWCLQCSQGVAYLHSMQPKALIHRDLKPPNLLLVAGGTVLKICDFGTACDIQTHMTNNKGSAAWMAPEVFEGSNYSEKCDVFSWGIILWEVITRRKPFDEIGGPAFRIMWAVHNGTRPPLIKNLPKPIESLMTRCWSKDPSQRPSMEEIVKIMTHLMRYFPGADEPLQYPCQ
Experimental: as §1

IRAK4(h) = IRAK4(h) (Homo sapiens, UniProt Q9NWZ3)
Experimental: as §1

MKK7β(h) = MKK7β(h) (Homo sapiens, UniProt O14733)
Experimental: as §1

CK1γ1(h) = CK1γ1(h) (Homo sapiens, UniProt Q9HCP0)
Chain of CK1γ1(h) (Q9HCP0 whole entry): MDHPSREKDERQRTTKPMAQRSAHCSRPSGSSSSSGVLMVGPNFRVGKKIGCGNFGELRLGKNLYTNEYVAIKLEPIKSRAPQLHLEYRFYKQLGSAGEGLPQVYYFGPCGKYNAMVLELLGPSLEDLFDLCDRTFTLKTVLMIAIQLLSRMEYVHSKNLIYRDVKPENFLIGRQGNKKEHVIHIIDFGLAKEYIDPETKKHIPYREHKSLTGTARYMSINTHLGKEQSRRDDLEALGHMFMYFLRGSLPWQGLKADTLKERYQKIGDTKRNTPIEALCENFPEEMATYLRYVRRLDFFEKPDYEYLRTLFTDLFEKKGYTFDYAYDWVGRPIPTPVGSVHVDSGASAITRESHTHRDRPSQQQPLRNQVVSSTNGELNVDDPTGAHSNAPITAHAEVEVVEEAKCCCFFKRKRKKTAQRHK
Experimental: as §1

c-RAF(h) = c-RAF(h) (Homo sapiens, UniProt P04049)
Experimental: as §1

PDGFRβ(h) = PDGFRβ(h) (Homo sapiens, UniProt P09619)
Experimental: as §1

CDK1/cyclinB(h) = CDK1/cyclinB(h) (Homo sapiens, UniProt P06493)
Experimental: as §1

[3] = target: PI3 Kinase (p110δ/p85α)(h) (Homo sapiens, UniProt O00329)
Experimental: as §1

NEK2(h) = NEK2(h) (Homo sapiens, UniProt P51955)
Chain of NEK2(h) (P51955 whole entry): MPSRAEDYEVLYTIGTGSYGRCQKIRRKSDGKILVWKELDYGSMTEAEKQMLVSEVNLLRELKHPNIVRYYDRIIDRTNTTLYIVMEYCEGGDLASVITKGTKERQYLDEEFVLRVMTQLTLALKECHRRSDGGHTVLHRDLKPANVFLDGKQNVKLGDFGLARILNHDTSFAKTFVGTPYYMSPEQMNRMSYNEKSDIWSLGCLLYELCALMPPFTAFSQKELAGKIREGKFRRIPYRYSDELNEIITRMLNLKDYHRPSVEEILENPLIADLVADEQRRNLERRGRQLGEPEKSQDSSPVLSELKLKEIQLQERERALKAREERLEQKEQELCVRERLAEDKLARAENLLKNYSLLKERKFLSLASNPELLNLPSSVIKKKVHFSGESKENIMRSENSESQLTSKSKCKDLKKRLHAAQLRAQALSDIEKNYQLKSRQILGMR
Experimental: as §1

MEK1(h) = MEK1(h) (Homo sapiens, UniProt Q02750)
Experimental: as §1

CDK7/cyclinH/MAT1(h) = CDK7/cyclinH/MAT1(h) (Homo sapiens, UniProt P50613)
Experimental: as §1

IKKα(h) = IKKα(h) (Homo sapiens, UniProt O15111)
Experimental: as §1

CDK6/cyclinD3(h) = CDK6/cyclinD3(h) (Homo sapiens, UniProt Q00534)
Experimental: as §1

Abl(h) = Abl(h) (Homo sapiens, UniProt P00519)
Experimental: as §1

MST1(h) = MST1(h) (Homo sapiens, UniProt Q13043)
Experimental: as §1

PKG1α(h) = PKG1α(h) (Homo sapiens, UniProt Q13976)
Experimental: as §1

Chain of PAK2(h) (Q13177 whole entry): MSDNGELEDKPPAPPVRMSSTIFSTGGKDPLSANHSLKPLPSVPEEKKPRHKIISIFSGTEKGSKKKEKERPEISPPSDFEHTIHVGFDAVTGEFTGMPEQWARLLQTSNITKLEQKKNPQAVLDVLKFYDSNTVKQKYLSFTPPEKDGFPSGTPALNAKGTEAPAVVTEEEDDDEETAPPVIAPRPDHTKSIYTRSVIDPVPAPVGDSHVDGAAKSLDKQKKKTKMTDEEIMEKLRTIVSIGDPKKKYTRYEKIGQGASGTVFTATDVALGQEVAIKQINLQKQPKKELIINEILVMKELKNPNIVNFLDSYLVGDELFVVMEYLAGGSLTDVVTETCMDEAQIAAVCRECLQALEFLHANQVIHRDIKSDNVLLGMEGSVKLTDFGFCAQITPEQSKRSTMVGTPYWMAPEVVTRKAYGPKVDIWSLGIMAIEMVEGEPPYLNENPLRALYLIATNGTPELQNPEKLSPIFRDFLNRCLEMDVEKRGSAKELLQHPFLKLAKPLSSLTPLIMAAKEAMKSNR

Cc1ccc2c(Nc3cccc(OC(F)(F)F)c3)nccc2c1Nc1ncccc1-c1ncnc2[nH]cnc12 [LUT014]
remaining activity at 0.01 µM (PAK2(h); Lut014 @ 0.01 μM): 95% | remaining activity at 1 µM (PAK2(h); Lut014 @ 1 μM): 111% | remaining activity at 0.01 µM (eEF-2K(h); Lut014 @ 0.01 μM): 95% | remaining activity at 1 µM (eEF-2K(h); Lut014 @ 1 μM): 106% | remaining activity at 0.01 µM (EGFR(h); Lut014 @ 0.01 μM): 98% | remaining activity at 1 µM (EGFR(h); Lut014 @ 1 μM): 100% | remaining activity at 0.01 µM (ALK(h); Lut014 @ 0.01 μM): 150% | remaining activity at 1 µM (ALK(h); Lut014 @ 1 μM): 83% | remaining activity at 0.01 µM (PKA(h); Lut014 @ 0.01 μM): 114% | remaining activity at 1 µM (PKA(h); Lut014 @ 1 μM): 106% | remaining activity at 0.01 µM (LOK(h); Lut014 @ 0.01 μM): 98% | remaining activity at 1 µM (LOK(h); Lut014 @ 1 μM): 83% | remaining activity at 0.01 µM (PKCα(h); Lut014 @ 0.01 μM): 102% | remaining activity at 1 µM (PKCα(h); Lut014 @ 1 μM): 107% | remaining activity at 0.01 µM (MSK2(h); Lut014 @ 0.01 μM): 92% | remaining activity at 1 µM (MSK2(h); Lut014 @ 1 μM): 96% | remaining activity at 0.01 µM (KDR(h); Lut014 @ 0.01 μM): 96% | remaining activity at 1 µM (KDR(h); Lut014 @ 1 μM): 79% | remaining activity at 0.01 µM (DRAK1(h); Lut014 @ 0.01 μM): 99% | remaining activity at 1 µM (DRAK1(h); Lut014 @ 1 μM): 117% | remaining activity at 0.01 µM (EphA5(h); Lut014 @ 0.01 μM): 99% | remaining activity at 1 µM (EphA5(h); Lut014 @ 1 μM): 56% | remaining activity at 0.01 µM (Plk3(h); Lut014 @ 0.01 μM): 85% | remaining activity at 1 µM (Plk3(h); Lut014 @ 1 μM): 87% | remaining activity at 0.01 µM ([1]; Lut014 @ 0.01 μM): 101% | remaining activity at 1 µM ([1]; Lut014 @ 1 μM): 95% | remaining activity at 0.01 µM ([2]; Lut014 @ 0.01 μM): 92% | remaining activity at 1 µM ([2]; Lut014 @ 1 μM): 84% | remaining activity at 0.01 µM (SPRK1(h); Lut014 @ 0.01 μM): 105% | remaining activity at 1 µM (SPRK1(h); Lut014 @ 1 μM): 100% | remaining activity at 0.01 µM (TAK1(h); Lut014 @ 0.01 μM): 91% | remaining activity at 1 µM (TAK1(h); Lut014 @ 1 μM): 97% | remaining activity at 0.01 µM (IRAK4(h); Lut014 @ 0.01 μM): 94% | remaining activity at 1 µM (IRAK4(h); Lut014 @ 1 μM): 109% | remaining activity at 0.01 µM (MKK7β(h); Lut014 @ 0.01 μM): 100% | remaining activity at 1 µM (MKK7β(h); Lut014 @ 1 μM): 103% | remaining activity at 0.01 µM (CK1γ1(h); Lut014 @ 0.01 μM): 94% | remaining activity at 1 µM (CK1γ1(h); Lut014 @ 1 μM): 101% | remaining activity at 0.01 µM (c-RAF(h); Lut014 @ 0.01 μM): 105% | remaining activity at 1 µM (c-RAF(h); Lut014 @ 1 μM): 30% | remaining activity at 0.01 µM (PDGFRβ(h); Lut014 @ 0.01 μM): 98% | remaining activity at 1 µM (PDGFRβ(h); Lut014 @ 1 μM): 103% | remaining activity at 0.01 µM (CDK1/cyclinB(h); Lut014 @ 0.01 μM): 113% | remaining activity at 1 µM (CDK1/cyclinB(h); Lut014 @ 1 μM): 102% | remaining activity at 0.01 µM ([3]; Lut014 @ 0.01 μM): 96% | remaining activity at 1 µM ([3]; Lut014 @ 1 μM): 94% | remaining activity at 0.01 µM (NEK2(h); Lut014 @ 0.01 μM): 98% | remaining activity at 1 µM (NEK2(h); Lut014 @ 1 μM): 125% | remaining activity at 0.01 µM (MEK1(h); Lut014 @ 0.01 μM): 98% | remaining activity at 1 µM (MEK1(h); Lut014 @ 1 μM): 105% | remaining activity at 0.01 µM (CDK7/cyclinH/MAT1(h); Lut014 @ 0.01 μM): 105% | remaining activity at 1 µM (CDK7/cyclinH/MAT1(h); Lut014 @ 1 μM): 109% | remaining activity at 0.01 µM (IKKα(h); Lut014 @ 0.01 μM): 105% | remaining activity at 1 µM (IKKα(h); Lut014 @ 1 μM): 105% | remaining activity at 0.01 µM (CDK6/cyclinD3(h); Lut014 @ 0.01 μM): 100% | remaining activity at 1 µM (CDK6/cyclinD3(h); Lut014 @ 1 μM): 103% | remaining activity at 0.01 µM (Abl(h); Lut014 @ 0.01 μM): 92% | remaining activity at 1 µM (Abl(h); Lut014 @ 1 μM): 25% | remaining activity at 0.01 µM (MST1(h); Lut014 @ 0.01 μM): 98% | remaining activity at 1 µM (MST1(h); Lut014 @ 1 μM): 112% | remaining activity at 0.01 µM (PKG1α(h); Lut014 @ 0.01 μM): 99% | remaining activity at 1 µM (PKG1α(h); Lut014 @ 1 μM): 111%
